Like-named read-outs stand apart in the source and are kept apart here.
Key:
[1] = Cytotoxicity assay, MTT method; type: cell-based, Human; details: human, HepG2, MTT, 72 h incubation, n = 3
Method: (§1) The cytotoxicity of the compounds to HepG2 was determined using the MTT method. First, the cells were transferred from the culture dish to a centrifuge tube, and centrifuged for 5 min (at 1000 r/min). After discarding the supernatant, the tumor cells were cultured in a complete medium containing 15% fetal bovine serum at 37 C, 5% CO2, and saturated humidity. When the cells grew logarithmically, they were spread onto plates, and the cell density was adjusted to 8.0 × 10^4 cells/mL before the cell sap was added into a 96-well plate (200 µL per well). The cells grew adherent for 24 h. After 24 h, 2 µL of two standards, two extracts of medicinal herbs were added to each plate well and incubated for 72 h. Adriamycin was used as the positive control, and the blank control contained 2 µL DMSO. After incubation, 20 μL of 5 mg/mL MTT solution was added, and the plates were incubated for 4 h. The supernatant liquid was removed, and the cells were disrupted with 200 µL of DMSO for 10 min. After the blue crystalline substance was fully dissolved, the absorbance value was measured on a microplate reader with the detection wavelength of 562 nm and the reference wavelength of 630 nm. The IC50 value of each compound was calculated.

HepG2 cell line = experiment: Cytotoxicity assay, MTT method; type: cell-based, Human
Method: as §1

DNA of HepG2 cells [2] = experiment: Comet assay, DNA damage; type: cell-based, Human; details: for damage to the DNA of HepG2 cells / tail length compared with blank control group: AAI 50 μM, AAII 131.5 μM; for tail length compared with blank control group: AMH 10 mg/mL, ADS 93 mg/mL, ADM 3.4 μM, Kruskal–Wallis test
Method: Cells in the logarithmic growth phase were inoculated in 6-well plates, and the cell density was adjusted to 2.5 × 10^5 cells /mL, 2 mL per well. After 24 h, the experimental group was combined with AAⅠ (50 μM), AAII (131.5 μM), extracts of the AMH (10 mg/mL) and ADS (93 mg/mL), the positive control group was combined with ADM (3.4 μM), and the blank control group were added with the same volume of cell culture solution. After 48 h of culture, the cells were collected. DNA damage was detected according to the operating instructions of comet assay kit. The experiment was repeated 3 times, and 50 cells were selected at each dose in each experiment and analyzed by Comet Assay software (CASP, http://casplab.com/, accessed on 5 October 2022). The mean values of tail DNA percentage, tail length, and tail moment of three experiments were used to express DNA damage. Results one-way ANOVA was used to test the data between groups, and the difference was statistically significant when p < 0.01. Data and statistical results are generated by GraphPad Prism 7 software.

DNA of HepG2 cells [3] = experiment: Comet assay, DNA damage; type: cell-based, Human; details: HepG2, 48 h; AAI 50 μM, AAII 131.5 μM, AMH 10 mg/mL, ADS 93 mg/mL, ADM 3.4 μM; Kruskal–Wallis test
NCI-H187 cell line = tested on: NCI-H187 cell line; design: method as in PMID 25865074, PMID 29098873; details: cited from earlier work
A549 = tested on: A549; design: method as in PMID 25865074, PMID 29098873; details: cited from earlier work
MCF7 = tested on: MCF7; design: method as in PMID 25865074, PMID 29098873; details: cited from earlier work
[4] = means ± SD, read-out: IC50 values of compounds, cytotoxic activity
[5] = HepG2, AAI 50 μM vs AAII 131.5 μM, 48 h
[6] = HepG2, AAI 50 μM vs ADS extract 93 mg/mL, 48 h

## O=C(O)c1cc2c(c3c1c([N+](=O)[O-])cc1ccc(O)cc13)OCO2 [AAC, aristolochic acid ΙΙΙ a]
[1]; [4]
  IC50: 293.5 ± 0.3 µM

## COc1cc(O)cc2c1cc([N+](=O)[O-])c1c(C(=O)O)cc3c(c12)OCO3 [AAD, Aristolochic acid IVa]
[1]; read-out: IC50 values of compounds, cytotoxic activity (symbol)
  IC50: > 1000 µM
HepG2 cell line
  cytotoxicity against HepG2 cell line: no cytotoxicity

## COc1cccc2c1cc([N+](=O)[O-])c1c(C(=O)O)cc3c(c12)OCO3 [AAI, Aristolochic acid I]
[1]; [4]
  IC50 at 72 h: 50.2 ± 0.2 µM
HepG2 cell line
  cytotoxicity against HepG2 cell line: moderate cytotoxicity
DNA of HepG2 cells [2]; HepG2, 48 h
  damage to the DNA of HepG2 cells: obviously caused damage to the DNA
  tail length compared with blank control group: significantly higher
DNA of HepG2 cells [2]; [5]
  tail DNA content, increase relative to AAII: 16 times
  tail length, increase relative to AAII: 12.8 times
  tail moment, increase relative to AAII group: 110 times
DNA of HepG2 cells [2]; [6]
  tail DNA content, increase relative to ADS: 4.7 times
  tail length, increase relative to ADS: 6.8 times
  tail moment, increase relative to ADS group: approximately 70 times
DNA of HepG2 cells [2]; HepG2, at 50 μM, 48 h
  damage to cellular DNA, TDNA: 40–95%
DNA of HepG2 cells [3]
  tail DNA content compared with blank control group: significant differences

## O=C(O)c1cc2c(c3c1c([N+](=O)[O-])cc1ccccc13)OCO2 [AAII]
[1]; [4]
  IC50: 131.4 ± 0.1 µM
DNA of HepG2 cells [2]; HepG2, 48 h
  damage to cellular DNA, TDNA: 5–20%
  damage to the DNA of HepG2 cells: no obvious damage
DNA of HepG2 cells [3]
  tail DNA content compared with blank control group: no significance

## COc1cc2c3c(cc4ccccc4c3c1OC)NC2=O [AL-BII]
[1]; [4]
  IC50: 0.2 ± 0.1 µM
HepG2 cell line
  cytotoxicity against HepG2 cell line: most potent cytotoxicity
NCI-H187 cell line
  cytotoxicity against NCI-H187 cell line: selective cytotoxicity
A549
  cytotoxicity against A549: no cytotoxicity
MCF7
  cytotoxicity against MCF7: no cytotoxicity

## COc1cc2c3c(cc4ccccc4c3c1O)NC2=O [AL-FI]
[1]; [4]
  IC50: 417.2 ± 0.2 µM

## COc1cccc2c1cc1c3c(cc4c(c32)OCO4)C(=O)N1 [AL-I, aristolactam Ι]
[1]; [4]
  IC50: 135.7 ± 0.3 µM

## COc1cccc2c1C(=O)c1c(O)c3c(c(O)c1C2=O)C[C@@](O)(C(=O)CO)C[C@@H]3O[C@H]1C[C@H](N)[C@H](O)[C@H](C)O1 [Extract of ADM, Adriamycin]
[1]; [4]
  IC50: 3.1 ± 0.1 µM
DNA of HepG2 cells [2]; HepG2, 48 h
  tail length compared with blank control group: significantly higher
DNA of HepG2 cells [3]
  tail DNA content compared with blank control group: significant differences
